Data published in patent publication US6476044B1, “Use of morphine derivatives as medicaments for the treatment of neuropathic problems” (Gruenenthal GmbH, priority 2000, dated 2002).
Structures can show the parent of a compound that is named as a salt. Where two headings read alike, the source gives them in different places.

Assays:
[1] = molecular target: T1, ORL1 receptor (Homo sapiens, UniProt P41146); test: ORL1 reporter gene assay, agonist test (inhibition of cAMP-dependent luciferase formation); assay type: cell-based; set-up: A cDNA coding for the ORL1 receptor was cloned using standard methods from THP-1 cells; expressed in transfected cells; host or cells: CHO-K1/pSE66/K9/pZeoORL17/K21; settings: agonist potency: concentration at semi-maximum inhibition of luciferase formation; CHO-K1 cells expressing human ORL1
Source text: (§1) The morphinan derivatives of the general formula I according to the invention were identified with a reporter gene system as ORL1 receptor agonists or as ORL1 receptor antagonists. This reporter gene system is based on the expression of the human ORL1 receptor in CHO-K1 cells, which carry a cAMP-sensitive luciferase gene (Wnendt et al., Regulatory Peptides, 80, 1999, p. 127 the entire disclosure of which is incorporated herein by reference). The formation of cAMP is induced by forskolin, an adenylate cyclase activator.
Also, they inhibit in a concentration-dependent manner luciferase formation due to the binding to the ORL1 receptor. The potency, expressed as the IC50 value, indicates the concentration at which the semi-maximum effect of the agonist is reached.
(§2) The reporter gene system was constructed as follows:
A cDNA coding for the ORL1 receptor was cloned using standard methods from THP-1 cells (European Cell Culture Collection, Porton Down, Great Britain) of a human monocyte cell line and integrated into the plasmid pZeoSV (Invitrogen, Leek, Netherlands). This plasmid, pZeoORL17, was used for the transfection of a cell line, CHO-K1/pSE66/K9, that contains the cAMP reporter plasmid pSE66. […]

[2] = molecular target: T1, ORL1 receptor; test: Receptor binding assay with 3H-nociceptin/orphanin FQ using membranes of recombinant CHO-ORL1 cells; set-up: expressed in transfected cells; host or cells: recombinant CHO-ORL1 cells (membranes)
Experimental: Furthermore a receptor binding assay with ^3H-nociceptin/ orphanin FQ was carried out with the compounds according to the invention using membranes of recombinant CHO-ORL1 cells. This test system was implemented according to the method proposed by Ardati et al. (Mol. Pharmacol., 51, 1997, pp. 816-824). The concentration of ^3H-N/OFQ in these experiments was 0.5 nM. The binding assays were performed in each case with 20 μg of membrane protein per 200 μl of batch in 50 mM of Hepes, pH 7.4, 10 mM MgCl2 and 1 mM EDTA. The binding to the ORL1 receptor was determined using in each case 1 mg of WGA-SPA beads (Amersham-Pharmacia, Freiburg) by incubating the batch for one hour at room temperature followed by measurement in a Trilux scintillation counter (Wallac, Finland). The affinity is given as the Ki value.

[3] = molecular target: T1, ORL1 receptor; test: ORL1 reporter gene assay, antagonist test (cAMP-sensitive luciferase, forskolin-induced, in presence of 10 nM nociceptin/orphanin FQ); assay type: cell-based; set-up: A cDNA coding for the ORL1 receptor was cloned using standard methods from THP-1 cells; expressed in transfected cells; host or cells: CHO-K1/pSE66/K9/pZeoORL17/K21
Source text: as §1
The inhibition of luciferase formation due to the agonists is lifted to the extent that the antagonist binds to the ORL1 receptor. […] The effect of the antagonists is described by the pKB value.
as §2
A cDNA coding for the ORL1 receptor was cloned using standard methods from THP-1 cells (European Cell Culture Collection, Porton Down, Great Britain) of a human monocyte cell line and integrated into the plasmid pZeoSV (Invitrogen, Leek, Netherlands). This plasmid, pZeoORL17, was used for the transfection of a cell line, CHO-K1/pSE66/K9, that contains the cAMP reporter plasmid pSE66. The plasmid pSE66 was constructed on the basis of the plasmid pMAMneo-LUC (Clontech, Palo Alto, Calif.) by replacing the RSV promoter of this plasmid by a promoter region in which six CRE elements (cAMP-responsive elements, Comb et al., Nature, 323, 1986, pp. 353-356; Montminy et al., Proc. Natl. Acad. Sci. USA, 83, 1986, pp. 6682-6686; Short et al., J. Biol. Chem., 261, 1986, pp. 9721-9726) lie upstream of a promoter. The SV40 promoter derives from the plasmid pGL2-promoter (Promega, Madison, Wis.). The promoter region constructed in this way controls in the plasmid pSE66 the expression of the luciferase gene from pMAMneo-LUC. Furthermore, pSE66 carries a G418 resistance gene under the control of a further SV40 promoter. The cell line CHO-K1 (European Cell Culture Collection, Porton Down, Great Britain) was rendered stable with pSE66 and the clone CHO-K1/pSE66/K9 was selected for the transfection with pZeoORL17. […]

[4] = 0.5 nM 3H-N/OFQ, CHO-ORL1 membranes, WGA-SPA beads, one hour at room temperature, read-out: Ki (nM) ORL1 Binding Assay
[5] = read-out: PKB ORL1 Reporter Gene Assay (converted)

T1 sequence (P41146 whole entry): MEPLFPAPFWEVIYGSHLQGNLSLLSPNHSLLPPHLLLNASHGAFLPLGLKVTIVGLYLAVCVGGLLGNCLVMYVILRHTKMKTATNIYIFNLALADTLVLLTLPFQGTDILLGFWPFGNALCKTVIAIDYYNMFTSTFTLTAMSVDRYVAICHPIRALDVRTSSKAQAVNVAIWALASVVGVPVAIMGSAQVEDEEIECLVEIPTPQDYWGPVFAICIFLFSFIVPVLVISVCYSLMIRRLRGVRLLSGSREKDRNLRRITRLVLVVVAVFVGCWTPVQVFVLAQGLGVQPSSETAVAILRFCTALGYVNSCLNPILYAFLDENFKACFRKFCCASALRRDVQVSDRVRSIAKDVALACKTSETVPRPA

| Molecule | IC50 [1] | Ki [2, 4] | Ki [2] | Kb [3] | Kb [3, 5] |
| --- | --- | --- | --- | --- | --- |
| 17-cyclopropylmethyl-6,7-didehydro-4,5α-epoxy-3-hydroxy-14-(methoxynaphthalene)1′-(β-methylnaphthalene)indolo-[6,7:2,′3′]-morphinan hydrochloride [Example 4] | 31.2 nM | 982 nM | – | – | – |
| 17-cyclopropylmethyl-6,7-didehydro-4,5α-epoxy-14-hydroxy-3-benzyloxy-1′-(p-methoxycarbonylmethylphenyl)-indolo-[6,7:2,′3′]-morphinan hydrochloride [Example 5] | 25.8 nM | – | – | – | – |
| C=CCN1CCC23c4c5ccc(O)c4OC2c2c(c4ccccc4n2Cc2ccccc2Cl)CC3(O)C1C5 (stereo not drawn) [Example 1, 17-allyl-6,7-didehydro-4,5α-epoxy-3,14-dihydroxy-1′-(o-chlorobenzyl)indolo-[6,7:2,′3′]-morphinan hydrochloride] | – | – | 449 nM | 42.7 nM | – |
| C=CCN1CCC23c4c5ccc(O)c4OC2c2c(c4ccccc4n2Cc2cccc(Cl)c2)CC3(OCc2cccc(Cl)c2)C1C5 (stereo not drawn) [Example 2, 17-allyl-6,7-didehydro-4,5α-epoxy-3-hydroxy-14-(m-chloromethoxyphenyl)1′-(m-chlorobenzyl)indolo[6,7:2,′3′]-morphinan hydrochloride] | – | 1080 nM | – | – | 102 nM |
| Oc1ccc2c3c1OC1c4c(c5ccccc5n4Cc4ccccc4Cl)CC4(OCc5ccccc5Cl)C(C2)N(CC2CC2)CCC314 (stereo not drawn) [Example 3, 17-cyclopropylmethyl-6,7-didehydro-4,5α-epoxy-3-hydroxy-14-(o-chloromethoxyphenyl)1′-(o-chlorobenzyl)-indolo[6,7:2,′3′]-morphinan hydrochloride] | – | 718 nM | – | – | 407 nM |
